Earlier results as cited in PubChem BioAssay AID1259409 (Chemical Carcinogenesis Research Information System (CCRIS), 2018).
Where “and” joins values, the source holds several entries; their conditions need not be identical. Equal values may be shown once.

System: rodent chemically induced tumor inhibition, incidence and multiplicity
Assay: CCRIS tumor inhibitor studies

## CC(C)=CCC/C(C)=C/CO
Carcinogen: 7,12-DIMETHYLBENZ[A]ANTHRACENE, 57-97-6, Dose [Inhibitor]: 0, 36 MMOL/KG IN DIET FOR 24 WK BEGINNING 2 WK PRIOR TO CARCINOGEN DOSE (STUDY DURATION: 24 WK), Route [Inhibitor]: ORAL, Species: RAT, Strain/Sex: SPRAGUE-DAWLEY/FEMALE, Target Tissue: Type of Lesion: MAMMARY GLAND: TUMOR, Dose [Carcinogen]: 65 MG/KG BW ONCE, Promoter: NONE USED
  tumour outcome (control, treated, inhibition, significance): 91%, 81%, 11%, not significant

## CO[C@@H]1[C@H](OC(=O)NC(=O)CCl)CC[C@]2(CO2)[C@H]1[C@@]1(C)O[C@@H]1CC=C(C)C
Carcinogen: N-METHYL-N-NITROSOUREA, 684-93-5, Dose [Inhibitor]: 0, 1 UG/ML IN URINE 1/WK FOR 10 WK INSTILLED INTO HETEROTROPICALLY TRANSPLANTED BLADDER BEGINNING 21 WK POST CARCINOGEN, Route [Inhibitor]: INTRAVESICULAR, Species: RAT, Strain/Sex: F344/MALE, Target Tissue: Type of Lesion: BLADDER: TUMOR, Dose [Carcinogen]: 0.25 MG IN 0.5 ML OF 0.9% SALINE INSTILLED INTO HETEROTROPICALLY TRANSPLANTED BLADDER ONCE, Promoter: NONE USED
  tumour outcome (control, treated, inhibition, significance): 24/38 (63%), 9/24 (38%), 40%, p=0.08
Carcinogen: N-METHYL-N-NITROSOUREA, 684-93-5, Dose [Inhibitor]: 0, 1 UG/ML IN URINE 1/WK FOR 27 WK INSTILLED INTO HETEROTROPICALLY TRANSPLANTED BLADDER BEGINNING 4 WK POST CARCINOGEN D, Route [Inhibitor]: INTRAVESICULAR, Species: RAT, Strain/Sex: F344/MALE, Target Tissue: Type of Lesion: BLADDER: TUMOR, Dose [Carcinogen]: 0.25 MG IN 0.5 ML OF 0.9% SALINE INSTILLED INTO HETEROTROPICALLY TRANSPLANTED BLADDER ONCE, Promoter: NONE USED
  tumour outcome (control, treated, inhibition, significance): 24/38 (63%), 14/37 (38%), 40%, p<0.05

## II
Carcinogen: N-METHYL-N-NITROSOUREA [684-93-5], Dose [Inhibitor]: 0.05% I2 IN DRINKING WATER, 2 WKS BEFORE CARCINOGEN AND FOR 26 WKS AFTER, Route [Inhibitor]: DRINKING WATER, Species: RAT, Strain/Sex: SPRAGUE-DAWLEY/FEMALE, Target Tissue: Type of Lesion: MAMMARY GLAND: CARCINOMA, Dose [Carcinogen]: 50 MG/KG BW ONCE AT 7 WKS OF AGE (IN SALINE SOLUTION)
  outcome: 8/11 (73%) vs 3/10 (30%) at 16 wks, p<0.05
Carcinogen: N-Methyl-N- nitrosourea (684-93-5), Dose [Inhibitor]: 0, 0.05% in drinking water for a total of 18 wks, Route [Inhibitor]: Oral, Species: Rat, Strain/Sex: Sprague-Dawley, female, Target Tissue: Type of Lesion: Mammary gland, Dose [Carcinogen]: 50 mg, study duration 16 wks after carcinogen
  outcome: 100%, 62.5%, p<0.05

## CC#C[C@]1(O)CC[C@H]2[C@@H]3CCC4=CC(=O)CCC4=C3[C@@H](c3ccc(N(C)C)cc3)C[C@@]21C
Carcinogen: 7,12-Dimethylbenz(a)anthracene (57-97-6), Dose [Inhibitor]: 10 mg administered daily for 28 days, Route [Inhibitor]: Subcutaneous, Species: Rat, Strain/Sex: Sprague-Dawley/Female, Target Tissue: Type of Lesion: Mammary gland: Adenocarcinoma and papillary carcinoma, Dose [Carcinogen]: 10 mg/kg once at 50 days of age, Promoter: None
  tumour outcome (control, treated, inhibition, significance): 12/13 (92%), 13/14 (93%), 0% ns

## CCN1CCCC1CNC(=O)c1cc(S(N)(=O)=O)ccc1OC (stereo not drawn)
Carcinogen: N-METHYL-N'-NITRO-N-NITROSOGUANIDINE, 70-25-7, Dose [Inhibitor]: 0, 30 MG/KG 1/2 D BEGINNING 1 WK POST CARCINOGEN TREATMENT AND CONTINUING FOR DURATION OF STUDY (STUDY DURATION: 52 WK), Route [Inhibitor]: SUBCUTANEOUS, Species: RAT, Strain/Sex: WISTAR/MALE, Target Tissue: Type of Lesion: STOMACH: ADENOCARCINOMA, Dose [Carcinogen]: 50 UG/ML IN DRINKING WATER FOR 25 WK, Promoter: NONE USED
  tumour outcome (control, treated, inhibition, significance): 13/18 (72%), 11/18 (61%), 15%, not significant
Carcinogen: N-METHYL-N'-NITRO-N-NITROSOGUANIDINE, 70-25-7, Dose [Inhibitor]: 0, 30 MG/KG IN 2 ML/KG 0.9% NACL 1/2 D FOR STUDY DURATION BEGINNING POST CARCINOGEN TREATMENT (STUDY DURATION: 52 WK), Route [Inhibitor]: SUBCUTANEOUS, Species: RAT, Strain/Sex: WISTAR/MALE, Target Tissue: Type of Lesion: GLANDULAR STOMACH: ADENOCARCINOMA, Dose [Carcinogen]: 50 UG/ML DRINKING WATER FOR 25 WK
  tumour outcome (control, treated, inhibition, significance): 13/18 (72%), 11/18 (61%), 15%, not significant

## CCCCCCCCCCCCC/C=C/[C@@H](O)[C@H](COP(=O)(O)OCC[N+](C)(C)C)NC=O
Carcinogen: 1,2-DIMETHYLHYDRAZINE DIHYDROCHLORIDE, 306-37-6, Dose [Inhibitor]: 0, 0.025 G/100 G DIET FOR 28 WK BEGINNING 1 WK POST CARCINOGEN TREATMENT (STUDY DURATION: 59 WK), Route [Inhibitor]: ORAL, Species: MOUSE, Strain/Sex: CF-1/FEMALE, Target Tissue: Type of Lesion: COLON: TUMOR, Dose [Carcinogen]: 20 MG/KG BW 1/WK FOR 6 WK, Promoter: NONE USED
  tumour outcome (control, treated, inhibition, significance): 7/15 (47%), 2/10 (20%), 57%, p=0.08
Carcinogen: 1,2-DIMETHYLHYDRAZINE DIHYDROCHLORIDE, 306-37-6, Dose [Inhibitor]: 0, 0.05 G/100 G DIET FOR 28 WK BEGINNING 1 WK POST CARCINOGEN TREATMENT (STUDY DURATION: 59 WK), Route [Inhibitor]: ORAL, Species: MOUSE, Strain/Sex: CF-1/FEMALE, Target Tissue: Type of Lesion: COLON: TUMOR, Dose [Carcinogen]: 20 MG/KG BW 1/WK FOR 6 WK, Promoter: NONE USED
  tumour outcome (control, treated, inhibition, significance): 7/15 (47%), 3/14 (21%), 55%, p=0.08
Carcinogen: 1,2-DIMETHYLHYDRAZINE DIHYDROCHLORIDE, 306-37-6, Dose [Inhibitor]: 0, 0.1 G/100 G DIET FOR 28 WK BEGINNING 1 WK POST CARCINOGEN TREATMENT (STUDY DURATION: 59 WK), Route [Inhibitor]: ORAL, Species: MOUSE, Strain/Sex: CF-1/FEMALE, Target Tissue: Type of Lesion: COLON: TUMOR, Dose [Carcinogen]: 20 MG/KG BW 1/WK FOR 6 WK, Promoter: NONE USED
  tumour outcome (control, treated, inhibition, significance): 7/15 (47%), 2/10 (20%), 57%, p=0.08

## Cc1cc(=O)cc(C)o1
Carcinogen: BENZO[A]PYRENE, 50-32-8, Dose [Inhibitor]: 0.034 MMOL/G IN DIET FOR 5 WK (STUDY DURATION: 21 WK), Route [Inhibitor]: ORAL, Species: MOUSE, Strain/Sex: ICR/FEMALE, Target Tissue: Type of Lesion: FORESTOMACH: TUMOR, Dose [Carcinogen]: 1 MG IN 0.2 ML CORN OIL 2/WK FOR 4 WK STARTING ON D 8 OF EXPERIMENT, Promoter: NONE USED
  tumour outcome (control, treated, inhibition, significance): 94%, 100%, -6%, not significant

## CC1(C)O[C@H]2CC(=O)OC[C@]23[C@H]2CC[C@@]4(C)[C@H](c5ccoc5)OC(=O)[C@H]5O[C@]54[C@]2(C)C(=O)C[C@@H]13
Carcinogen: AZOXYMETHANE, 25843-45-2, Dose [Inhibitor]: 0, 0.05% IN DIET FOR 35 WK BEGINNING 1 WK POST CARCINOGEN LAST DOSE (STUDY DURATION: 38 WK), Route [Inhibitor]: ORAL, Species: RAT, Strain/Sex: F344/MALE, Target Tissue: Type of Lesion: COLON: ADENOCARCINOMA, Dose [Carcinogen]: 20 MG/KG BW 1/WK FOR 2 WK
  tumour outcome (control, treated, inhibition, significance): 18/25 (72%), 1/16 (6%), 92%, p=0.00003 and 18/25 (72%), 2/16 (13%), 82%, p=0.0002
